According to US10077261B2, “Imidazolin-5-one derivative useful as FASN inhibitors for the treatment of cancer” (Janssen Pharmaceutica NV, priority 2012, dated 2018):

Key:
[1] = molecular target: Fatty Acid Synthase Keto-reductase Domain (FASN KR) (Homo sapiens, UniProt P49327); experiment: Fatty Acid Synthase keto-reductase domain (FASN KR) inhibition, NADPH oxidation at 340 nm
Method: After 20 minutes incubation at room temperature the plate was measured again (T2).
The decrease in absorbance was calculated as (Absorbance before incubation T1)−(Absorbance following incubation T2).
A plot of Controlmin versus test compound concentration was fitted to a 4-parameter logistic curve using a non-linear least squares regression method.

A2780 ovarian cells [2] = experiment: A2780 ovarian cell proliferation assay in lipid reduced medium, without palmitate (MTT); assay type: cell-based; settings: Homo sapiens, A2780, 96 h; read-out: pIC50 A2780 Ovarian Cell, Without Palmitate (converted)
A2780 ovarian cells [3] = experiment: A2780 ovarian cell proliferation assay in lipid reduced medium, with palmitate (MTT); assay type: cell-based; settings: Homo sapiens, A2780, 96 h; read-out: pIC50 A2780 Ovarian Cell, With Palmitate (converted)
How it was run: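 Seeded cells were switched next day to lipid-reduced serum, exposed to compound and 25 μM palmitate complexed with fatty-acid-free BSA, and incubated 96 h. Proliferation was then determined by MTT absorbance at 544 nm, with a best-fit curve of signal against concentration.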

[4] = molecular target: T1, hFASN enzyme (full length) (Homo sapiens, UniProt P49327); experiment: Fatty Acid Synthase (FASN) inhibition scintillation proximity assay; assay type: biochemical; settings: for inhibition at 10 µM: read-out: Human FASN % inhibition @ 10 μM, 10 μM test compound; for IC50: read-out: Human FASN pIC50 (converted)
T1 construct: 10 μL hFASN enzyme (full length, 300 ng, purified in house); made in house
T1 sequence (P49327 whole entry): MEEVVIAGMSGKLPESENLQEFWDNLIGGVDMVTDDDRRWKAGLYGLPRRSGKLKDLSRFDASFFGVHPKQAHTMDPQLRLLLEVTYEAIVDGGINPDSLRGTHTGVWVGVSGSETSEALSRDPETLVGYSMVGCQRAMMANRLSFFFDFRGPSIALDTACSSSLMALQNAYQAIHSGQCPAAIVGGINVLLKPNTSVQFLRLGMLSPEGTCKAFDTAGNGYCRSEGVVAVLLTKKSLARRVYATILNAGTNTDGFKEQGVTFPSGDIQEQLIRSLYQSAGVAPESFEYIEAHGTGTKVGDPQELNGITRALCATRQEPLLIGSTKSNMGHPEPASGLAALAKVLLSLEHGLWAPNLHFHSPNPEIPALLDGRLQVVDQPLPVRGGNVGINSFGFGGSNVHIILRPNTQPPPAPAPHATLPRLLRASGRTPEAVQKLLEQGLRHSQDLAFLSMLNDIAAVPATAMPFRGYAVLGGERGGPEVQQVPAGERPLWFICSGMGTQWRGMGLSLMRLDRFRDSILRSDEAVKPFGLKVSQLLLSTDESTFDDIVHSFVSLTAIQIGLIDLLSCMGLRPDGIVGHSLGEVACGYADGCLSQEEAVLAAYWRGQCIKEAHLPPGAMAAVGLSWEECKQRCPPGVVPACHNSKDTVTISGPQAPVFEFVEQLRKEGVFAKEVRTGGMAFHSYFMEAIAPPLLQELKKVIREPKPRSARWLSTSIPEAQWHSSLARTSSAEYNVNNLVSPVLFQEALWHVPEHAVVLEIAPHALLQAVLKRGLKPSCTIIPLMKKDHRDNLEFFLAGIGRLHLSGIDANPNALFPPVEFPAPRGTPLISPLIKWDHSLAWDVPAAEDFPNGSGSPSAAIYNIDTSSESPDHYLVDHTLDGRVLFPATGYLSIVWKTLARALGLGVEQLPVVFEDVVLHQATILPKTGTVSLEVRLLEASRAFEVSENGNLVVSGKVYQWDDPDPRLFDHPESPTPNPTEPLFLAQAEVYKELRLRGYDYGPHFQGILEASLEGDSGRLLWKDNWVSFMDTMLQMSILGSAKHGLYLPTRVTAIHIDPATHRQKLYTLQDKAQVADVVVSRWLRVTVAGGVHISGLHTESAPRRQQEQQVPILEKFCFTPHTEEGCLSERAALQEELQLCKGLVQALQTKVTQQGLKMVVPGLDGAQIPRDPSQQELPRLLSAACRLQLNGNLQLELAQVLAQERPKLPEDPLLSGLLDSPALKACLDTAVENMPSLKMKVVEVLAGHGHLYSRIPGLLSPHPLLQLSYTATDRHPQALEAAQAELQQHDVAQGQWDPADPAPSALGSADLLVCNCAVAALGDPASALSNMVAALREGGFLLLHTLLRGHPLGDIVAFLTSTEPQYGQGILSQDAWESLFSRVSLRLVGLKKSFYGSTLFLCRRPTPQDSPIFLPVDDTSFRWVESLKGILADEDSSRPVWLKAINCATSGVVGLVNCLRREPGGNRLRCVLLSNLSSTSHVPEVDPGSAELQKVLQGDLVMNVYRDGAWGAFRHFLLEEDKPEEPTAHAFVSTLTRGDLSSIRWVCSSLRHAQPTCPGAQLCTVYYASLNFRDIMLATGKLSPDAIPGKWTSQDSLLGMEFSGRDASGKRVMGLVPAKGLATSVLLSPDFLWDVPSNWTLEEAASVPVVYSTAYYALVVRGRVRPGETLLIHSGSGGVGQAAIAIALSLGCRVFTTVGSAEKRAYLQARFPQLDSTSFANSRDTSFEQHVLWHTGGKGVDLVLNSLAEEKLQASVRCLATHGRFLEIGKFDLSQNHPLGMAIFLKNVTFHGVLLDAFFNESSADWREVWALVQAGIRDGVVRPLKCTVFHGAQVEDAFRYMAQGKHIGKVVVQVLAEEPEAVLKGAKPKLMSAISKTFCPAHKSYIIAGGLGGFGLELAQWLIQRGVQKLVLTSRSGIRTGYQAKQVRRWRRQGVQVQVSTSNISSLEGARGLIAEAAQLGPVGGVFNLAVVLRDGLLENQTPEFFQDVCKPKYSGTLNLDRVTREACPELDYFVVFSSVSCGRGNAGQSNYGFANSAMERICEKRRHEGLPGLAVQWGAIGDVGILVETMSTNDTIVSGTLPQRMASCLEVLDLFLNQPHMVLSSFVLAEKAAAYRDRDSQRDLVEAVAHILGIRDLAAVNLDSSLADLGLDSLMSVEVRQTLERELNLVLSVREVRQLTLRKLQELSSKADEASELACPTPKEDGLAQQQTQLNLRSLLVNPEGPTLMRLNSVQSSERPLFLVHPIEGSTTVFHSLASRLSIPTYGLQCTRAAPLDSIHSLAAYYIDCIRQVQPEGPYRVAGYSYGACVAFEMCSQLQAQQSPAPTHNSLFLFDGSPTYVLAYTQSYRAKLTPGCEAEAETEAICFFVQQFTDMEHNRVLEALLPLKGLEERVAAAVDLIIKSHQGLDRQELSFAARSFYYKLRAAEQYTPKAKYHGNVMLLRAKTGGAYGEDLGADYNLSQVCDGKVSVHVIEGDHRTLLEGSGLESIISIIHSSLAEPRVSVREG
How it was run: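 Purified full-length hFASN (300 ng) converts ^3H-acetyl-CoA plus malonyl-CoA to ^3H-palmitate in 100 mM KH2PO4 pH 7.5, 1 mM DTT; compounds tested at 0.01–30 μM. Product captured on streptavidin imaging beads and read by LEADseeker at 610 nm after ≥24 h; 4-parameter logistic fit versus controls.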

Sequence of Fatty Acid Synthase Keto-reductase Domain (FASN KR) (P49327 whole entry, the tested form may be a part): as the sequence (P49327 whole entry) above

Row | Compound | IC50 [1] [nM] | IC50 (A2780 ovarian cells [2]) [nM] | IC50 (A2780 ovarian cells [3]) [µM] | inhibition at 10 µM [4] [%] | IC50 [4] [nM]
1 | O=C(C1CC1)N1CCC(CN2C(=O)C3(CC3)N=C2c2ccc(-c3ccc4[nH]ccc4c3)cc2)CC1 [compound 10, 6-{[1-(Cyclopropylcarbonyl)piperidin-4-yl]methyl}-5-[4-(1H-indol-5-yl)phenyl]-4,6-diazaspiro[2.4]hept-4-en-7-one] | 501 | 871 | > 10 | 89.7 | 204
2 | O=C(C1CC1)N1CC[C@@H](CN2C(=O)C3(CCNCC3)N=C2c2ccc(-c3ccc4cnccc4c3)cc2)C1 [compound 106, 3-{[(3R)-1-(Cyclopropylcarbonyl)pyrrolidin-3-yl]methyl}-2-(4-isoquinolin-6-ylphenyl)-1,3,8-triazaspiro[4.5]dec-1-en-4-one] | 603 | 741 | > 10 | 110 | 112
3 | O=C(C1CC1)N1CC(CN2C(=O)C3(CCN(CCO)CC3)N=C2c2ccc(-c3ccc4[nH]ccc4c3)cc2)C1 [compound 757, 3-{[1-(Cyclopropylcarbonyl)azetidin-3-yl]methyl}-8-(2-hydroxyethyl)-2-[4-(1H-indol-5-yl)phenyl]-1,3,8-triazaspiro[4.5]dec-1-en-4-one] | 1000 | 708 | > 10 | 104 | 158
4 | O=C(C1CC1)N1CC[C@@H](CN2C(=O)C3(CCCC3)N=C2c2ccc(-c3ccc4ccncc4c3)cc2)C1 [compound 69, 3-{[(3R)-1-(Cyclopropylcarbonyl)pyrrolidin-3-yl]methyl}-2-(4-isoquinolin-7-ylphenyl)-1,3-diazaspiro[4.4]non-1-en-4-one] | 851 | 1150 | > 10 | 100 | 224
5 | CC(C)N1CCC2(CC1)N=C(c1ccc(-c3ccc4[nH]ncc4c3)cc1)N(C[C@@H]1CCN(C(=O)C3CC3)C1)C2=O [compound 743, 3-{[(3R)-1-(Cyclopropylcarbonyl)pyrrolidin-3-yl]methyl}-2-[4-(1H-indazol-5-yl)phenyl]-8-(1-methylethyl)-1,3,8-triazaspiro[4.5]dec-1-en-4-one] | 1580 | 2090 | > 10 | 90 | 708
6 | Cc1cc(-c2ccc3c(c2)OCO3)ccc1C1=NC2(CCCC2)C(=O)N1C[C@@H]1CCN(C(=O)C2CC2)C1 [compound 883, (R)-2-(4-(benzo[d][1,3]dioxol-5-yl)-2-methylphenyl)-3-((1-(cyclopropanecarbonyl)pyrrolidin-3-yl)methyl)-1,3-diazaspiro[4.4]non-1-en-4-one] | 1050 | ~2450 | > 10 | 100 | 269
7 | O=C(C1CC1)N1CCC(CN2C(=O)C3(CC3)N=C2c2ccc(-c3ccc4[nH]ncc4c3)cc2)CC1 [compound 29, 6-{[1-(Cyclopropylcarbonyl)piperidin-4-yl]methyl}-5-[4-(1H-indazol-5-yl)phenyl]-4,6-diazaspiro[2.4]hept-4-en-7-one] | 2340 | 3390 | > 10 | 81.7 | 933
8 | O=C(C1CC1)N1CCC(CN2C(=O)C3(CC3)N=C2c2ccc(-c3ccc4scnc4c3)cc2)CC1 [compound 57, 5-[4-(1,3-Benzothiazol-5-yl)phenyl]-6-{[1-(cyclopropylcarbonyl)piperidin-4-yl]methyl}-4,6-diazaspiro[2.4]hept-4-en-7-one] | 1700 | 2510 | > 10 | 88.1 | 759
9 | COCc1nn(C)c2ccc(-c3ccc(C4=NC5(CC5)C(=O)N4CC4CN(C(=O)C5CC5)C4)c(F)c3)cc12 [compound 608, 6-{[1-(Cyclopropylcarbonyl)azetidin-3-yl]methyl}-5-{2-fluoro-4-[3-(methoxymethyl)-1-methyl-01H-indazol-5-yl]phenyl}-4,6-diazaspiro[2.4]hept-4-en-7-one] | 1020 | 372 | > 10 | 98 | 148

Now those with a lower IC50 [1], led by results:

Row | IC50 [1] [nM] | IC50 (A2780 ovarian cells [2]) [nM] | IC50 (A2780 ovarian cells [3]) [µM] | inhibition at 10 µM [4] [%] | IC50 [4] [nM] | Compound
10 | 380 | 1700 | > 10 | 112 | 81.3 | Cc1cccc(-c2ccc(C3=NC4(CC4)C(=O)N3C[C@@H]3CCN(C(=O)C4CC4)C3)cc2)c1 [compound 101, 6-{[(3R)-1-(Cyclopropylcarbonyl)pyrrolidin-3-yl]methyl}-5-(3′-methylbiphenyl-4-yl)-4,6-diazaspiro[2.4]hept-4-en-7-one]
11 | 77.6 | 45.7 | > 10 | 111 | 51.3 | O=C(C1CC1)N1CC[C@@H](CN2C(=O)C3(CCCC3)N=C2c2ccc(-c3cccc4[nH]ncc34)cc2)C1 [compound 92, 3-{[(3R)-1-(Cyclopropylcarbonyl)pyrrolidin-3-yl]methyl}-2-[4-(1H-indazol-4-yl)phenyl]-1,3-diazaspiro[4.4]non-1-en-4-one]
12 | 42.7 | 72.4 | > 10 | 106 | 18.6 | O=C(C1CC1)N1CC(CN2C(=O)C3(CC3)N=C2c2ccc(-c3ccc4[nH]ccc4c3)cc2)C1 [compound 40, 6-{[1-(Cyclopropylcarbonyl)azetidin-3-yl]methyl}-5-[4-(1H-indol-5-yl)phenyl]-4,6-diazaspiro[2.4]hept-4-en-7-one]
13 | 69.2 | ~692 | > 10 | 113 | 25.7 | Cc1cc(-c2ccc3occc3c2)ccc1C1=NC2(CC2)C(=O)N1C[C@@H]1CCN(C(=O)C2CC2)C1 [compound 278, (R)-5-(4-(benzofuran-5-yl)-2-methylphenyl)-6-((1-(cyclopropanecarbonyl)pyrrolidin-3-yl)methyl)-4,6-diazaspiro[2.4]hept-4-en-7-one]
14 | 56.2 | 251 | > 10 | 109 | 25.7 | O=C(C1CC1)N1CC[C@@H](CN2C(=O)C3(CCCC3)N=C2c2ccc(-c3ccc4cc[nH]c4c3)cc2)C1 [compound 33, 3-{[(3R)-1-(Cyclopropylcarbonyl)pyrrolidin-3-yl]methyl}-2-[4-(1H-indol-6-yl)phenyl]-1,3-diazaspiro[4.4]non-1-en-4-one]
15 | 126 | ~1950 | > 10 | 109 | 30.2 | Cc1cc2cc(-c3ccc(C4=NC5(CC5)C(=O)N4C[C@@H]4CCN(C(=O)C5CC5)C4)c(C)c3)ccc2o1 [compound 280, (R)-6-((1-(cyclopropanecarbonyl)pyrrolidin-3-yl)methyl)-5-(2-methyl-4-(2-methylbenzofuran-5-yl)phenyl)-4,6-diazaspiro[2.4]hept-4-en-7-one]
16 | 209 | 776 | > 10 | 110 | 74.1 | Cc1ccc(-c2ccc(C3=NC4(CC4)C(=O)N3C[C@@H]3CCN(C(=O)C4CC4)C3)cc2)cc1 [compound 100, 6-{[(3R)-1-(Cyclopropylcarbonyl)pyrrolidin-3-yl]methyl}-5-(4′-methylbiphenyl-4-yl)-4,6-diazaspiro[2.4]hept-4-en-7-one]
17 | 288 | 263 | > 10 | 99.4 | 93.3 | O=C(C1CC1)N1CC(CN2C(=O)C3(CC3)N=C2c2ccc(-c3ccc(-c4cccnc4)cc3)cc2)C1 [compound 60, 6-{[1-(Cyclopropylcarbonyl)azetidin-3-yl]methyl}-5-(4′-pyridin-3-ylbiphenyl-4-yl)-4,6-diazaspiro[2.4]hept-4-en-7-one]
18 | 70.8 | ~63.1 | > 10 | 113 | 43.7 | COC(=O)N1CCC2(CC1)N=C(c1ccc(-c3ccc4[nH]ccc4c3)cc1)N(C[C@@H]1CCN(C(=O)C3CC3)C1)C2=O [compound 15, Methyl 3-{[(3R)-1-(cyclopropylcarbonyl)pyrrolidin-3-yl]methyl}-2-[4-(1H-indol-5-yl)phenyl]-4-oxo-1,3,8-triazaspiro[4.5]dec-1-ene-8-carboxylate]
19 | 110 | ~813 | > 6.17 | 114 | 44.7 | Cc1cc2cc(-c3ccc(C4=NC5(CC5)C(=O)N4C[C@@H]4CCN(C(=O)C5CC5)C4)c(C)c3)ccc2s1 [compound 281, (R)-6-((1-(cyclopropanecarbonyl)pyrrolidin-3-yl)methyl)-5-(2-methyl-4-(2-methylbenzo[b]thiophen-5-yl)phenyl)-4,6-diazaspiro[2.4]hept-4-en-7-one]
20 | 85.1 | 75.9 | > 10 | 115 | 74.1 | O=C(C1CC1)N1CC[C@@H](CN2C(=O)C3(CCN(Cc4ccccc4)CC3)N=C2c2ccc(-c3ccc4[nH]ccc4c3)cc2)C1 [compound 63, (R)-2-(4-(1H-Indol-5-yl)phenyl)-8-benzyl-3-((1-(cyclopropanecarbonyl)pyrrolidin-3-yl)methyl)-1,3,8-triazaspiro[4.5]dec-1-en-4-one]
